Our source for the IC50 values is patent publication US20160354781A1, “MICROFLUIDIC PLATE FOR SAMPLE PROCESSING” (National Taiwan University, priority 2015, published 2016).

Converted amounts (≈) assume the structure as drawn.

The subject of assay [1] is MDA-MB-231 cells. Put plainly: Anticancer drug screening in the Micro-Gap Plate (MGP), viability by tri-fluorescent staining. The following applies: Homo sapiens, 24 hour drug treatment, viability normalized against untreated cells, read-out: IC50 (concentration yielding a 50% decrease in normalized percentage cell viability). The class given is cell-based. Here is the method:
(§1) The anticancer drug screening of cell lines was conducted with MGP and on 96-well plates as control. Two typical breast cancer lines, MCF-7 (ATCC, HTB-22) and MDA-MB-231 (ATCC, HTB-26) were used. The reason to choose the two types of cancer cell lines was that MCF-7 stood for typical luminal type cancer cells while MDA-MB-231 stood for normal-like typically. By using the two cell lines in drug response assay on the microfluidic device, we could examine whether MGP was workable to both the two types of cancer cells since primary samples may have diversely cancer cell types. Anticancer drug screening using cell lines could confirm the feasibility of applying MGP to individualized chemosensitivity assay on primary patient samples. In addition, cell lines on MGP could help optimize the operation of drug response assay beforehand, which would reduce the difficulties when dealing with primary samples. Moreover, the method of viability assessment could be examined on MGP using cell lines since fluorescent images was one of most important factors to determine the viability of cancer cells after drug treatment. […]
Primary cells were suspended (16.7 cells/0.1 μL) in culture medium (the formula of culture medium is stated in the previous section). […] The volume of cell suspension in each unit was determined on the basis of the final density of cell suspension as stated in previous section. […]

The subject of assay [2] is MDA-MB-231 cells. The assay is described as follows: Anticancer drug screening in 96-well plates (control), MTT assay. The conditions noted are these: Homo sapiens, 96-well control, 24 hour drug treatment, read-out: IC50 (concentration yielding a 50% decrease in normalized percentage cell viability). The class given is cell-based. Here is the method:
as §1, with “samples.” for “samples. Moreover, the method of viability assessment could be examined on MGP using cell lines since fluorescent images was one of most important factors to determine the viability of cancer cells after drug treatment.”
Anticancer drug screening was also conducted using conventional 96-well plates as controls. […] The quantity of cells in single well was determined to coordinate the same cell-to-substrate ratio as in MGP (1000 cells/1.766 mm2). […] Finally, a plate reader (MQX 200, BioTek) was used to determine the absorbance of the DMSO at 570 nm, which was used to determine the number of living cells. […]

In the case of `CC(=O)O[C@@]12CO[C@@H]1C[C@H](O)[C@@]1(C)C(=O)[C@H](O)C3=C(C)[C@@H](OC(=O)[C@H](O)[C@@H](NC(=O)OC(C)(C)C)c4ccccc4)C[C@@](O)([C@@H](OC(=O)c4ccccc4)[C@H]21)C3(C)C` [docetaxel], the IC50 in assay [1] amounted to 23.4 µg/mL (≈ 29 µM); in assay [2], 25.4 µg/mL (≈ 31.4 µM).
